Consider 2 molecules from patent US20230301948A1, “REDUCTION OF VIRAL INFECTIONS” (PHOXGEN LIMITED, priority 2020, published 2023).

Where two headings read alike, the source gives them in different places. Marks after values point to notes of the source that are not given here.

In assay [1] the target is T1, cathepsin L protease (Homo sapiens, UniProt P07711).
T1 construct: purchased BPS Bioscience
It counts as biochemical.

The target of assay [2] is T2, SpikeS1-ACE2 interaction (UniProt P0DTC2+Q9BYF1).
T2 construct: Rabbit Fc-tagged SARS-Cov-2 Spike S1 RBD; purchased Cayman Chemical Company
Kind of assay: biochemical. It counts as binding, SARS-CoV-2. Conditions: read-out: Percentage inhibition (wrt 100% initial activity).

T1 sequence (P07711 114-333): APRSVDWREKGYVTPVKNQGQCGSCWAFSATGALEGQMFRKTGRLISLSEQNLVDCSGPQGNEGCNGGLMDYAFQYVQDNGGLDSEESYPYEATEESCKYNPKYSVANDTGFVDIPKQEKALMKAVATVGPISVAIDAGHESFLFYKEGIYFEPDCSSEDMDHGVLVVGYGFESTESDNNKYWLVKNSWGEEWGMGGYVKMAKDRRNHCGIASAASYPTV

As for `CC(C)C[C@H](NC(=O)[C@H]1O[C@@H]1C(=O)O)C(=O)NCCCCN=C(N)N` [Composition E-64, E-64], the Percentage inhibition in assay [1] (0.0001 µM) was -15.5%; in assay [1] (0.001 µM) it was -1.1%; in assay [1] (0.01 µM), 17.2 ** %; in assay [1] (0.1 µM) it was 56.3 ** %.

Take `Cc1cc(O)c2c(c1)C(=O)c1cc(O)cc(O)c1C2=O` [Emodin]: in assay [2] (0.01 µg/ml), the inhibition (usually the share of the control response that was lost under treatment) at 0.01 µg/mL turned out to be 35.5%. Further, the inhibition at 0.1 µg/mL in assay [2] (0.1 µg/ml) was found to be 38.9%. Moreover, in assay [2] (1 µg/ml), the inhibition at 1 µg/mL was determined as 44.3%. The inhibition at 10 µg/mL in assay [2] (10 µg/ml) amounted to 48.9%. The inhibition at 50 µg/mL in assay [2] (50 µg/ml) turned out to be 62.8%.
